According to US6469060B2, “Compositions based on iodopropynyl-and formaldehyde donor compounds and to their use as preservatives” (Air Liquide Sante (International), priority 1997, dated 2002):

Tests used:
[1] = Formaldehyde emission of N-formals, Dräger tubes (Example 9); format: physicochemical; details: pure N-formal, 1 g overnight in covered 400 ml beaker; for formaldehyde content: Dräger tubes (10 strokes)
Description: For this purpose, 1 g of each of the N-formals was left to stand overnight in a 400 ml beaker covered with para-film. On the following day, the formaldehyde content was then measured using Dräger tubes (10 strokes) as described in Example 1.
The formaldehyde content was 15 ppm (2 strokes 3 ppm) in 3,3′-methylenebis(tetrahydro-2H-1,3-oxazine) and 25 ppm (2 strokes 5 ppm) in Mar 71™. Preparations of 80% by weight of each N-formal and 20% by weight of 1,2-propylene glycol display a clearly different behavior. For example, the addition of 1,2-PLG to 3,3′-methylenebis(tetrahydro-2H-1,3-oxazine) leads to a reduction in the formaldehyde content to form 1.5 to 2.5 ppm (20 strokes) and the addition to Mar 71™ to a reduction to 10 ppm (5 strokes 5 ppm), the formaldehyde content being determined as described above for pure N-formals.

[2] = Stability and compatibility of IPBC with various N-formals, storage at +40° C. in clear glass (Example 2); format: physicochemical; details: discoloration and IPBC degradation
Description: The stability and compatibility of IPBC in compositions containing 3% by weight of IPBC, from 80 to 97% by weight of N-formals and […] by weight of 1,2-PLG were determined as a function of the storage time after the solutions had been stored at a temperature of +40° C. in clear glass.
The initially clear, colorless to slightly yellowish solutions became discoloured to varying degrees after storage for three months at a temperature of +40° C. Only the compositions based on IPBC and Mar 71 retained their clear, slightly yellowish appearance.
A summary of the development of the IPBC content, determined by means of HPLC (IPBC starting content 3% by weight) in the compositions investigated as a function of the storage period, is given in Table IV.

formaldehyde content, reading at 2 strokes [1] [ppm]	formaldehyde content [1] [ppm]	Compatibility with IPBC [2]	SMILES
3	15		C1COCN(CN2CCCOC2)C1 [3,3′-methylenebis(tetrahydro-2H-1,3-oxazine), reference compound]
		incompatible	OCCN1CN(CCO)CN(CCO)C1 [Grotan BK TM, 1,3,5-tris(hydroxyethyl)hexahydrotriazine]
5	25		CC1CN(CN2COC(C)C2)CO1 (centres unmarked) [Mar 71™, 3,3′-methylenebis(5-methyloxazolidine)]
